Columns and labels:
GFP-HttQ74-3 cell line = format: cell-based; settings: 100 uM, 5 hours exposure
Text: FIG. 11. […] The 28Q-2 and 74Q-3 were used in most of our studies. The asterisk corresponds to a non-specific band that is detected by the GFP antibody. • B. Representative fluorescent images of GFP-HttPolyQ(28)-2 and GFP-HttPolyQ(74)-3 stable cell lines. Note that GFP fluorescence is located in both the cytoplasm and the nucleus, but that compact foci are only seen in the GFP-HttPolyQ(74)-3 cells. • C. Cells expressing expanded polyglutamine proteins are more sensitive to H2O2. The GFP-HftPolyQ(28)-2 and GFP-HttPolyQ(74)-3 stable cell lines were exposed to 200 μM concentration of H2O2 and after 5 hr, the cells were stained with both Hoechest 33342 and PI. […] Percentages of cell death calculated by determining the ratio of PI-positively stained cells to that of Hoechst-stained cells. […] Cell death was quantified as described in D above. • H. Representative images showing that ubiquilin-1 overexpression protects GFP-HttPolyQ(74)-3 expressing cells against serum withdrawal-induced cell death, in a dose-dependent manner. […] Bottom panel: Quantification of the spot intensity determined in three independent experiments.
Cell death was monitored either through examination of the nuclear morphology observed after Hoechst 33342 (1 μg/ml) staining, or through detecting the membrane selective permeability following 3 μM of propidium iodide (PI) staining. […]

Aph-1 = experiment: UBQLN overexpression in PS inducible cells, Aph-1 immunoblot; format: cell-based; settings: UBQLN overexpressed
Text: (§1) (A) Examination of Nicastrin, Aph-1 and Pen-2 levels in PS1 cells lines that were either not induced (lanes 1 and 3) or induced with PonA (lanes 2 and 4) and either left untransfected (lanes 1 and 2) or transfected with UBQLN1 cDNA (lanes 3 and 4). Equivalent amounts of protein lysates were separated by 10% SDS-PAGE and immunoblotted with the appropriate antibodies. The filter was then reprobed an anti-actin to ensure equal loading. UBQLN overexpression decreases Pen-2 and Nicastrin levels.
(§2) Preparation of protein lysates, SDS-PAGE and immunoblotting of proteins were described previously. Primary antibodies used were rabbit anti-PS2 loop and rabbit anti-PS2 NH,-terminus, both raised to GST-PS2 fusion proteins; rabbit anti-ubiquilin [43] which reacts with UBQLN1 and UBQLN2 polypeptides; rat anti-PS1 NH2,-terminus (Chemicon International, Temecula, Calif.); rabbit anti-PS1 loop raised to GST-PS1 fusion proteins; goat anti-p27 and goat anti-actin (Santa Cruz Biotechnology, Santa Cruz, Calif.); mouse monoclonal anti-tubulin (Sigma-Aldrich, St. Louis, Mo.); rabbit anti-nicastrin (Abeam, Cambridge, Mass.), rabbit anti-Pen-2 (Zymed, San Francisco, Calif.); and rabbit anti-Aph-la (Covance, Berkeley, Calif.). […]

Pen-2 = experiment: UBQLN overexpression in PS inducible cells, Pen-2 immunoblot; format: cell-based; settings: induced lysates
Text: as §1
(C) Densitometric analysis was used to quantify the extent of reduction. Each experiment was repeated more than three times.
as §2

PS2 NTF [1] = experiment: Cycloheximide time course of PS2 fragment production in PS2 inducible cells with or without UBQLN1 transfection; format: cell-based, human; settings: PS2 inducible cell lysates, densitometry
Protocol: (A) Time course experiment using ponA-induced PS2 cell line cultures transfected with or without UBQLN1 expression plasmids were treated with […] cycloheximide for 0-6 hours. Equal amounts of protein lysate were separated by 8.5% SDS-PAGE and subsequently immunoblotted with anti-UBQLN antibody. Transfected cells reveal a 4-fold increase in UBQLN1 levels. Next, the protein lysates were immunoblotted using anti-PS2 NH,-terminal antibody to detect FL and NTF PS2 levels, as indicated. Note both FL PS2 turnover and NTF production levels in transfected versus untransfected cell lysates.
(B) Same experiment as (A) except FL PS expression was not induced using PonA.
(C) Graphs showing relative levels of PS2 polypeptides in PS2 inducible cell lysates after densitometric analysis of the immunoreactive bands shown in panels A and B. The levels were calculated by normalization of the signals relative to that in Lane 1. The Microsoft Excel program was used to produce a best-fit line for each graph. […] However, this is completely opposite of NTF levels. UBQLN not only decreases NTF levels at every time-point in the experiment, but it also slows the rate of NTF production, as determined by measuring the slope of each line.
HeLa and HEK293 cells were grown in DMEM supplemented with 10% FBS. PS1 and S2 inducible cell lines were generated by transfection of the pERV-expressing HEK293 cell line (Stratgene, IaIolla, Calif.) with FL human PS2 cDNA under the control of ponasteroneA (PonA)-inducible cassette in plasmid pEGSH (Stratagene). Stable integration of the pEGSH plasmid was achieved by selection for hygromycin resistance. PS expression was induced by adding PonA (final cont. 10 pM) to the medium. For proteasome inhibition studies, cultures were treated with 40 uM MG132 (Calbiochem, San Diego, Calif.) for time periods as indicated. […]
To this end, protein synthesis was inhibited using cyclohexamide (CHX) and PS fragment production was monitored over a six-hour time period in UBQLN transfected and untransfected lysates that were either induced or uninduced for PS expression. […]

PS2 NTF [2] = experiment: Pulse-chase of PS2 NTF turnover with or without UBQLN overexpression; format: cell-based; settings: 35 hour chase, with vs without UBQLN overexpression
Nicastrin = experiment: UBQLN overexpression in PS inducible cells, Nicastrin immunoblot; format: cell-based; settings: UBQLN overexpressed
Text: as §1, §2

Compound	cell death (GFP-HttQ74-3 cell line)	Aph-1 levels (Aph-1)	reduction of Pen-2 levels (Pen-2) [fold]	FL PS2 levels (PS2 NTF [1])	turnover of PS2 NTF (PS2 NTF [2])	levels of mature Nicastrin (Nicastrin)
OO [H2O2]	approximately 30%	–	–	–	–	–
UBQLN: ubiquilin protein overexpressed from cDNA plasmids, isoform not specified at the place	–	remain steady	2	increases FL PS2 levels dramatically	no significant difference	decreased

Source: patent US20110166206A1, “UBIQUILIN REGULATION OF PRESENILIN ENDOPROTEOLYSIS, AND SUPPRESSION OF POLYGLUTAMINE-INDUCED TOXICITY IN CELLS” (UNIVERSITY OF MARYLAND BIOTECHNOLOGY INSTITUTE, priority 2005, published 2011)
